Data reported in ChEMBL document CHEMBL3784936, “Classification of matching molecular series on the basis of SAR phenotypes and structural relationships” (Medchemcomm, 2016).

Assays:
[1] = target: T1, Oxytocin receptor (Homo sapiens, UniProt P30559); test: Inhibition of oxytocin receptor (unknown origin)
T1 sequence (P30559 whole entry): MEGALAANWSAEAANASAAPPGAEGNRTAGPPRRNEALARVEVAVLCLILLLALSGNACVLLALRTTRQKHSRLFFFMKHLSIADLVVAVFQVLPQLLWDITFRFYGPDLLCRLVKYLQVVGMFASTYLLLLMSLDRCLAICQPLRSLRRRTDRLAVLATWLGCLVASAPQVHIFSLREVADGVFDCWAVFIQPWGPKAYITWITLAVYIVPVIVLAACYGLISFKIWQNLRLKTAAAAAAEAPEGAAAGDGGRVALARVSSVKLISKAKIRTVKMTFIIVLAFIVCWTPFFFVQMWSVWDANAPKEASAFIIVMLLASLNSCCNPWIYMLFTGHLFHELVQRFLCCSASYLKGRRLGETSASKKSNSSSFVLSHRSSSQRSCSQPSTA

[2] = target: T2, Adenosine receptor A3 (Homo sapiens, UniProt P0DMS8); test: Inhibition of adenosine A3 receptor (unknown origin)
T2 sequence (P0DMS8 whole entry): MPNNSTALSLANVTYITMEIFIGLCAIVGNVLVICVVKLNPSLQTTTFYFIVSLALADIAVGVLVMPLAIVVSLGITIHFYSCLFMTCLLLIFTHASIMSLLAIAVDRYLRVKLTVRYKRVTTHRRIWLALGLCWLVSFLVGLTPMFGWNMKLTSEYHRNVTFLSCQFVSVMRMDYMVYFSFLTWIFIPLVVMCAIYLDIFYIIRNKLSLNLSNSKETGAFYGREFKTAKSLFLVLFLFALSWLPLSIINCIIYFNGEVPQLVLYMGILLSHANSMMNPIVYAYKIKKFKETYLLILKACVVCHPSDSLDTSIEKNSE

Compound | Ki [1] | Ki [2]
CCCCOc1ccc(S(=O)(=O)N(CC(=O)N/N=C2\C(=O)Nc3ccccc32)c2ccc(Cl)cc2)cc1 | 17.8 nM | 
Nc1ncnc2c1ncn2[C@@H]1O[C@H](C(=O)NC2CC2)[C@@H](O)[C@H]1O |  | 178 nM
